Experimental data taken from patent US6525001B1, “Substituted pyrimidine and pyridine herbicides” (Mid-American Commercialization Corporation, priority 1997, dated 2003).

How the values were obtained:
Assay in all cases: Test B pre-/postemergence
Type in all cases: in vivo
Parameters in all cases: key: 0 is no effect; 10 is complete control
[1] = test system: broadleaf signalgrass (Brachiaria decumbens)
Summary of the method: (§1)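 Compounds in a surfactant-containing, non-phytotoxic solvent blend are applied to freshly planted seed (preemergence) and, concurrently, to seedlings of 2 to 18 cm at 1–4 leaves (postemergence). Plants stay in the greenhouse twelve to sixteen days and are then scored visually from 0 (no effect) to 10 (complete control).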

[2] = test system: momingglory (Ipomoea hederacea)
Summary of the method: as §1

[3] = test system: pigweed (Amaranthus retroflexus)
Summary of the method: as §1

soybean (Glycine max) = test system: soybean (Glycine max)
Summary of the method: as §1

[4] = test system: sugar beet (Beta vulgaris)
Summary of the method: as §1

[5] = test system: blackgrass (Alopecurus myosuroides)
Summary of the method: as §1

[6] = test system: velvetleaf (Abutilon theophrasti)
Summary of the method: as §1

[7] = test system: wheat (Triticum aestivum)
Summary of the method: as §1

[8] = test system: bedstraw (Galium aparine)
Summary of the method: as §1

rape (Brassica napus) = test system: rape (Brassica napus)
Summary of the method: as §1

corn (Zea mays) = test system: corn (Zea mays)
Summary of the method: as §1

wild oat (Avena fatua) = test system: wild oat (Avena fatua)
Summary of the method: as §1

[9] = test system: crabgrass (Digitaria sanguinalis)
Summary of the method: as §1

[10] = test system: cocklebur (Xanthium strumarium)
Summary of the method: as §1

Structure (SMILES): Cc1cnc(-c2ccc(C(F)(F)F)cc2)nc1Cc1cccc(C(F)(F)F)c1 [Example 1, 5-methyl-2-[4-(trifluoromethyl)phenyl]-4-[[3-(trifluoromethyl)phenyl]methyl]pyrimidine]
- Plant response rating, B. signalgrass ([1]; Rate 62 g/ha, Postemergence): 3
- B. signalgrass plant response rating ([1]; Rate 62 g/ha, Preemergence): 9
- Plant response rating, B. signalgrass ([1]; Rate 125 g/ha, Postemergence): 6
- B. signalgrass plant response rating ([1]; Rate 125 g/ha, Preemergence): 9
- Plant response rating, B. signalgrass ([1]; Rate 250 g/ha, Postemergence): 8
- Plant response rating, B. signalgrass ([1]; Rate 250 g/ha, Preemergence): 9
- Plant response rating, B. signalgrass ([1]; Rate 500 g/ha, Postemergence): 9
- Plant response rating, B. signalgrass ([1]; Rate 500 g/ha, Preemergence): 9
- Plant response rating, Morningglory ([2]; Rate 62 g/ha, Postemergence): 4
- Morningglory plant response rating ([2]; Rate 62 g/ha, Preemergence): 10
- Plant response rating, Morningglory ([2]; Rate 125 g/ha, Postemergence): 8
- Morningglory plant response rating ([2]; Rate 125 g/ha, Preemergence): 10
- Plant response rating, Morningglory ([2]; Rate 250 g/ha, Postemergence): 10
- Plant response rating, Morningglory ([2]; Rate 250 g/ha, Preemergence): 10
- Plant response rating, Morningglory ([2]; Rate 500 g/ha, Postemergence): 10
- Plant response rating, Morningglory ([2]; Rate 500 g/ha, Preemergence): 10
- Plant response rating, Redroot pigweed ([3]; Rate 62 g/ha, Postemergence): 9
- Redroot pigweed plant response rating ([3]; Rate 62 g/ha, Preemergence): 10
- Plant response rating, Redroot pigweed ([3]; Rate 125 g/ha, Postemergence): 9
- Redroot pigweed plant response rating ([3]; Rate 125 g/ha, Preemergence): 10
- Plant response rating, Redroot pigweed ([3]; Rate 250 g/ha, Postemergence): 10
- Plant response rating, Redroot pigweed ([3]; Rate 250 g/ha, Preemergence): 10
- Plant response rating, Redroot pigweed ([3]; Rate 500 g/ha, Postemergence): 10
- Plant response rating, Redroot pigweed ([3]; Rate 500 g/ha, Preemergence): 10
- Plant response rating, Soybean (soybean (Glycine max); Rate 62 g/ha, Postemergence): 8
- Soybean plant response rating (soybean (Glycine max); Rate 62 g/ha, Preemergence): 1
- Plant response rating, Soybean (soybean (Glycine max); Rate 125 g/ha, Postemergence): 8
- Soybean plant response rating (soybean (Glycine max); Rate 125 g/ha, Preemergence): 1
- Plant response rating, Soybean (soybean (Glycine max); Rate 250 g/ha, Postemergence): 9
- Plant response rating, Soybean (soybean (Glycine max); Rate 250 g/ha, Preemergence): 3
- Plant response rating, Soybean (soybean (Glycine max); Rate 500 g/ha, Postemergence): 9
- Plant response rating, Soybean (soybean (Glycine max); Rate 500 g/ha, Preemergence): 5
- Plant response rating, Sugarbeets ([4]; Rate 62 g/ha, Postemergence): 10
- Sugarbeets plant response rating ([4]; Rate 62 g/ha, Preemergence): 10
- Plant response rating, Sugarbeets ([4]; Rate 125 g/ha, Postemergence): 10
- Sugarbeets plant response rating ([4]; Rate 125 g/ha, Preemergence): 10
- Plant response rating, Sugarbeets ([4]; Rate 250 g/ha, Postemergence): 10
- Plant response rating, Sugarbeets ([4]; Rate 250 g/ha, Preemergence): 10
- Plant response rating, Sugarbeets ([4]; Rate 500 g/ha, Postemergence): 10
- Plant response rating, Sugarbeets ([4]; Rate 500 g/ha, Preemergence): 10
- Plant response rating, Blackgrass ([5]; Rate 62 g/ha, Postemergence): 7
- Blackgrass plant response rating ([5]; Rate 62 g/ha, Preemergence): 8
- Plant response rating, Blackgrass ([5]; Rate 125 g/ha, Postemergence): 7
- Blackgrass plant response rating ([5]; Rate 125 g/ha, Preemergence): 9
- Plant response rating, Blackgrass ([5]; Rate 250 g/ha, Postemergence): 9
- Plant response rating, Blackgrass ([5]; Rate 250 g/ha, Preemergence): 10
- Plant response rating, Blackgrass ([5]; Rate 500 g/ha, Postemergence): 9
- Plant response rating, Blackgrass ([5]; Rate 500 g/ha, Preemergence): 10
- Plant response rating, Velvetleaf ([6]; Rate 62 g/ha, Postemergence): 7
- Velvetleaf plant response rating ([6]; Rate 62 g/ha, Preemergence): 6
- Plant response rating, Velvetleaf ([6]; Rate 125 g/ha, Postemergence): 8
- Velvetleaf plant response rating ([6]; Rate 125 g/ha, Preemergence): 10
- Plant response rating, Velvetleaf ([6]; Rate 250 g/ha, Postemergence): 9
- Plant response rating, Velvetleaf ([6]; Rate 250 g/ha, Preemergence): 10
- Plant response rating, Velvetleaf ([6]; Rate 500 g/ha, Postemergence): 9
- Plant response rating, Velvetleaf ([6]; Rate 500 g/ha, Preemergence): 10
- Plant response rating, Wheat ([7]; Rate 62 g/ha, Postemergence): 2
- Wheat plant response rating ([7]; Rate 62 g/ha, Preemergence): 1
- Plant response rating, Wheat ([7]; Rate 125 g/ha, Postemergence): 2
- Wheat plant response rating ([7]; Rate 125 g/ha, Preemergence): 5
- Plant response rating, Wheat ([7]; Rate 250 g/ha, Postemergence): 3
- Plant response rating, Wheat ([7]; Rate 250 g/ha, Preemergence): 8
- Plant response rating, Wheat ([7]; Rate 500 g/ha, Postemergence): 5
- Plant response rating, Wheat ([7]; Rate 500 g/ha, Preemergence): 9
- Plant response rating, Bedstraw ([8]; Rate 62 g/ha, Postemergence): 9
- Bedstraw plant response rating ([8]; Rate 62 g/ha, Preemergence): 8
- Plant response rating, Bedstraw ([8]; Rate 125 g/ha, Postemergence): 9
- Bedstraw plant response rating ([8]; Rate 125 g/ha, Preemergence): 8
- Plant response rating, Bedstraw ([8]; Rate 250 g/ha, Postemergence): 9
- Plant response rating, Bedstraw ([8]; Rate 250 g/ha, Preemergence): 8
- Plant response rating, Bedstraw ([8]; Rate 500 g/ha, Postemergence): 10
- Plant response rating, Bedstraw ([8]; Rate 500 g/ha, Preemergence): 9
- Plant response rating, Rape (rape (Brassica napus); Rate 62 g/ha, Postemergence): 9
- Rape plant response rating (rape (Brassica napus); Rate 62 g/ha, Preemergence): 10
- Plant response rating, Rape (rape (Brassica napus); Rate 125 g/ha, Postemergence): 9
- Rape plant response rating (rape (Brassica napus); Rate 125 g/ha, Preemergence): 10
- Plant response rating, Rape (rape (Brassica napus); Rate 250 g/ha, Postemergence): 9
- Plant response rating, Rape (rape (Brassica napus); Rate 250 g/ha, Preemergence): 10
- Plant response rating, Rape (rape (Brassica napus); Rate 500 g/ha, Postemergence): 9
- Plant response rating, Rape (rape (Brassica napus); Rate 500 g/ha, Preemergence): 10
- Plant response rating, Corn (corn (Zea mays); Rate 62 g/ha, Postemergence): 4
- Corn plant response rating (corn (Zea mays); Rate 62 g/ha, Preemergence): 1
- Plant response rating, Corn (corn (Zea mays); Rate 125 g/ha, Postemergence): 4
- Corn plant response rating (corn (Zea mays); Rate 125 g/ha, Preemergence): 1
- Plant response rating, Corn (corn (Zea mays); Rate 250 g/ha, Postemergence): 4
- Plant response rating, Corn (corn (Zea mays); Rate 250 g/ha, Preemergence): 2
- Plant response rating, Corn (corn (Zea mays); Rate 500 g/ha, Postemergence): 7
- Plant response rating, Corn (corn (Zea mays); Rate 500 g/ha, Preemergence): 2
- Plant response rating, Wild oats (wild oat (Avena fatua); Rate 62 g/ha, Postemergence): 4
- Wild oats plant response rating (wild oat (Avena fatua); Rate 62 g/ha, Preemergence): 8
- Plant response rating, Wild oats (wild oat (Avena fatua); Rate 125 g/ha, Postemergence): 7
- Wild oats plant response rating (wild oat (Avena fatua); Rate 125 g/ha, Preemergence): 9
- Plant response rating, Wild oats (wild oat (Avena fatua); Rate 250 g/ha, Postemergence): 7
- Plant response rating, Wild oats (wild oat (Avena fatua); Rate 250 g/ha, Preemergence): 9
- Plant response rating, Wild oats (wild oat (Avena fatua); Rate 500 g/ha, Postemergence): 9
- Plant response rating, Wild oats (wild oat (Avena fatua); Rate 500 g/ha, Preemergence): 10
- Plant response rating, Crabgrass ([9]; Rate 62 g/ha, Postemergence): 4
- Crabgrass plant response rating ([9]; Rate 62 g/ha, Preemergence): 10
- Plant response rating, Crabgrass ([9]; Rate 125 g/ha, Postemergence): 9
- Crabgrass plant response rating ([9]; Rate 125 g/ha, Preemergence): 10
- Plant response rating, Crabgrass ([9]; Rate 250 g/ha, Postemergence): 9
- Plant response rating, Crabgrass ([9]; Rate 250 g/ha, Preemergence): 10
- Plant response rating, Crabgrass ([9]; Rate 500 g/ha, Postemergence): 9
- Plant response rating, Crabgrass ([9]; Rate 500 g/ha, Preemergence): 10
- Plant response rating, Cocklebur ([10]; Rate 62 g/ha, Postemergence): 7
- Cocklebur plant response rating ([10]; Rate 62 g/ha, Preemergence): 2
- Plant response rating, Cocklebur ([10]; Rate 125 g/ha, Postemergence): 8
- Cocklebur plant response rating ([10]; Rate 125 g/ha, Preemergence): 2
- Plant response rating, Cocklebur ([10]; Rate 250 g/ha, Postemergence): 9
- Plant response rating, Cocklebur ([10]; Rate 250 g/ha, Preemergence): 3
- Plant response rating, Cocklebur ([10]; Rate 500 g/ha, Postemergence): 10
- Plant response rating, Cocklebur ([10]; Rate 500 g/ha, Preemergence): 10
